# Measurements: ChEMBL document CHEMBL1649268, “Comparative in vitro activity profile of oritavancin against recent gram-positive clinical isolates” (2009)
# Experiments:
# Streptococcus pneumoniae [1] = test: Antimicrobial activity against penicillin-intermediate Streptococcus pneumoniae clinical isolates by broth microdilution method; format: functional
# Streptococcus pyogenes [2] = test: Antimicrobial activity against Streptococcus pyogenes clinical isolates assessed as resistant isolates by broth microdilution method; format: functional
# Streptococcus agalactiae [3] = test: Antimicrobial activity against Streptococcus agalactiae clinical isolates by broth microdilution method; format: functional
# Streptococcus pneumoniae [4] = test: Antimicrobial activity against penicillin-resistant Streptococcus pneumoniae clinical isolates by broth microdilution method; format: functional
# Streptococcus agalactiae [5] = test: Antimicrobial activity against erythromycin-nonsusceptible Streptococcus agalactiae clinical isolates by broth microdilution method; format: functional
# Streptococcus [6] = test: Antimicrobial activity against Streptococcus Group F clinical isolates assessed as percent susceptible isolates by broth microdilution method; format: functional
# Streptococcus pyogenes [7] = test: Antimicrobial activity against erythromycin-susceptible Streptococcus pyogenes clinical isolates by broth microdilution method; format: functional
# [8] = Antimicrobial activity against erythromycin-susceptible Streptococcus Group G clinical isolates assessed as percent susceptible isolates by broth microdilution method; format: functional, Streptococcus sp. 'group G'
# Streptococcus agalactiae [9] = test: Antimicrobial activity against erythromycin-nonsusceptible Streptococcus agalactiae clinical isolates assessed as percent susceptible isolates by broth microdilution method; format: functional
# [10] = Antimicrobial activity against erythromycin-nonsusceptible Streptococcus Group G clinical isolates by broth microdilution method; format: functional; conditions: Streptococcus sp. 'group G'
# Streptococcus agalactiae [11] = test: Antimicrobial activity against Streptococcus agalactiae clinical isolates assessed as percent susceptible isolates by broth microdilution method; format: functional
# Streptococcus pyogenes [12] = test: Antimicrobial activity against Streptococcus pyogenes clinical isolates assessed as percent susceptible isolates by broth microdilution method; format: functional
# [13] = Antimicrobial activity against Streptococcus Group G clinical isolates assessed as resistant isolates by broth microdilution method; format: functional, Streptococcus sp. 'group G'
# Streptococcus pneumoniae [14] = test: Antimicrobial activity against penicillin-intermediate Streptococcus pneumoniae clinical isolates assessed as percent susceptible isolates by broth microdilution method; format: functional
# Streptococcus [15] = test: Antimicrobial activity against erythromycin-susceptible Streptococcus Group F clinical isolates assessed as resistant isolates by broth microdilution method; format: functional
# Streptococcus pneumoniae [16] = test: Antimicrobial activity against Streptococcus pneumoniae clinical isolates by broth microdilution method; format: functional
# [17] = Antimicrobial activity against Streptococcus Group G clinical isolates by broth microdilution method; format: functional; conditions: Streptococcus sp. 'group G'
# Streptococcus pneumoniae [18] = test: Antimicrobial activity against penicillin-susceptible Streptococcus pneumoniae clinical isolates by broth microdilution method; format: functional
# Streptococcus agalactiae [19] = test: Antimicrobial activity against erythromycin-nonsusceptible Streptococcus agalactiae clinical isolates assessed as resistant isolates by broth microdilution method; format: functional
# Streptococcus [20] = test: Antimicrobial activity against erythromycin-nonsusceptible Streptococcus Group F clinical isolates assessed as resistant isolates by broth microdilution method; format: functional
# Streptococcus pyogenes [21] = test: Antimicrobial activity against erythromycin-nonsusceptible Streptococcus pyogenes clinical isolates by broth microdilution method; format: functional
# Streptococcus pneumoniae [22] = test: Antimicrobial activity against Streptococcus pneumoniae clinical isolates assessed as resistant isolates by broth microdilution method; format: functional
# [23] = Antimicrobial activity against erythromycin-nonsusceptible Streptococcus Group C clinical isolates by broth microdilution method; format: functional; conditions: Streptococcus sp. 'group C'
# Streptococcus agalactiae [24] = test: Antimicrobial activity against erythromycin-susceptible Streptococcus agalactiae clinical isolates assessed as percent susceptible isolates by broth microdilution method; format: functional
# Streptococcus agalactiae [25] = test: Antimicrobial activity against Streptococcus agalactiae clinical isolates assessed as resistant isolates by broth microdilution method; format: functional
# Streptococcus [26] = test: Antimicrobial activity against erythromycin-nonsusceptible Streptococcus Group F clinical isolates assessed as percent susceptible isolates by broth microdilution method; format: functional
# Streptococcus [27] = test: Antimicrobial activity against erythromycin-susceptible Streptococcus Group F clinical isolates by broth microdilution method; format: functional
# Streptococcus [28] = test: Antimicrobial activity against erythromycin-susceptible Streptococcus Group F clinical isolates assessed as percent susceptible isolates by broth microdilution method; format: functional
# [29] = Antimicrobial activity against erythromycin-susceptible Streptococcus Group C clinical isolates assessed as resistant isolates by broth microdilution method; format: functional, Streptococcus sp. 'group C'
# Streptococcus [30] = test: Antimicrobial activity against Streptococcus Group F clinical isolates assessed as resistant isolates by broth microdilution method; format: functional
# Streptococcus pneumoniae [31] = test: Antimicrobial activity against penicillin-susceptible Streptococcus pneumoniae clinical isolates assessed as percent susceptible isolates by broth microdilution method; format: functional
# [32] = Antimicrobial activity against erythromycin-susceptible Streptococcus Group G clinical isolates assessed as resistant isolates by broth microdilution method; format: functional, Streptococcus sp. 'group G'
# [33] = Antimicrobial activity against erythromycin-susceptible Streptococcus Group G clinical isolates by broth microdilution method; format: functional; conditions: Streptococcus sp. 'group G'
# Streptococcus pyogenes [34] = test: Antimicrobial activity against erythromycin-nonsusceptible Streptococcus pyogenes clinical isolates assessed as percent susceptible isolates by broth microdilution method; format: functional
# Streptococcus pneumoniae [35] = test: Antimicrobial activity against Streptococcus pneumoniae clinical isolates assessed as percent susceptible isolates by broth microdilution method; format: functional
# Streptococcus agalactiae [36] = test: Antimicrobial activity against erythromycin-susceptible Streptococcus agalactiae clinical isolates by broth microdilution method; format: functional
# [37] = Antimicrobial activity against erythromycin-nonsusceptible Streptococcus Group C clinical isolates assessed as percent susceptible isolates by broth microdilution method; format: functional, Streptococcus sp. 'group C'
# [38] = Antimicrobial activity against Streptococcus Group C clinical isolates assessed as percent susceptible isolates by broth microdilution method; format: functional, Streptococcus sp. 'group C'
# [39] = Antimicrobial activity against erythromycin-susceptible Streptococcus Group C clinical isolates assessed as percent susceptible isolates by broth microdilution method; format: functional, Streptococcus sp. 'group C'
# [40] = Antimicrobial activity against Streptococcus Group C clinical isolates assessed as resistant isolates by broth microdilution method; format: functional, Streptococcus sp. 'group C'
# Streptococcus [41] = test: Antimicrobial activity against Streptococcus Group F clinical isolates by broth microdilution method; format: functional
# [42] = Antimicrobial activity against erythromycin-nonsusceptible Streptococcus Group G clinical isolates assessed as resistant isolates by broth microdilution method; format: functional, Streptococcus sp. 'group G'
# [43] = Antimicrobial activity against Streptococcus Group G clinical isolates assessed as percent susceptible isolates by broth microdilution method; format: functional, Streptococcus sp. 'group G'
# Streptococcus pyogenes [44] = test: Antimicrobial activity against erythromycin-susceptible Streptococcus pyogenes clinical isolates assessed as resistant isolates by broth microdilution method; format: functional
# Streptococcus pyogenes [45] = test: Antimicrobial activity against erythromycin-nonsusceptible Streptococcus pyogenes clinical isolates assessed as resistant isolates by broth microdilution method; format: functional
# [46] = Antimicrobial activity against erythromycin-nonsusceptible Streptococcus Group C clinical isolates assessed as resistant isolates by broth microdilution method; format: functional, Streptococcus sp. 'group C'
# [47] = Antimicrobial activity against erythromycin-nonsusceptible Streptococcus Group G clinical isolates assessed as percent susceptible isolates by broth microdilution method; format: functional, Streptococcus sp. 'group G'
# Streptococcus pyogenes [48] = test: Antimicrobial activity against erythromycin-susceptible Streptococcus pyogenes clinical isolates assessed as percent susceptible isolates by broth microdilution method; format: functional
# Streptococcus agalactiae [49] = test: Antimicrobial activity against erythromycin-susceptible Streptococcus agalactiae clinical isolates assessed as resistant isolates by broth microdilution method; format: functional
# [50] = Antimicrobial activity against erythromycin-susceptible Streptococcus Group C clinical isolates by broth microdilution method; format: functional; conditions: Streptococcus sp. 'group C'
# Streptococcus [51] = test: Antimicrobial activity against erythromycin-nonsusceptible Streptococcus Group F clinical isolates by broth microdilution method; format: functional
# [52] = Antimicrobial activity against Streptococcus Group C clinical isolates by broth microdilution method; format: functional; conditions: Streptococcus sp. 'group C'
# Streptococcus pyogenes [53] = test: Antimicrobial activity against Streptococcus pyogenes clinical isolates by broth microdilution method; format: functional
structure (smiles),measurement,setting,value
CC1(C)S[C@@H]2[C@H](NC(=O)Cc3ccccc3)C(=O)N2[C@H]1C(=O)O [PENICILLIN G],MIC90,Streptococcus pneumoniae [1],1 µg/mL
same,Activity,Streptococcus pyogenes [2],0%
same,MIC90,Streptococcus agalactiae [3],0.06 µg/mL
same,MIC90,Streptococcus pneumoniae [4],4 µg/mL
same,MIC90,Streptococcus agalactiae [5],0.06 µg/mL
same,Activity,Streptococcus [6],100%
same,MIC90,Streptococcus pyogenes [7],≤ 0.03 µg/mL
same,Activity,[8],100%
same,Activity,Streptococcus agalactiae [9],100%
same,MIC90,[10],0.03 µg/mL
same,Activity,Streptococcus agalactiae [11],100%
same,Activity,Streptococcus pyogenes [12],100%
same,Activity,[13],0%
same,Activity,Streptococcus pneumoniae [14],0%
same,Activity,Streptococcus [15],0%
same,MIC90,Streptococcus pneumoniae [16],2 µg/mL
same,MIC90,[17],0.06 µg/mL
same,MIC,Streptococcus pneumoniae [18],≤ 0.03 µg/mL
same,MIC90,Streptococcus pneumoniae [18],≤ 0.03 µg/mL
same,Activity,Streptococcus agalactiae [19],0%
same,Activity,Streptococcus [20],0%
same,MIC90,Streptococcus pyogenes [21],0.03 µg/mL
same,Resistant isolates,Streptococcus pneumoniae [22],14.7%
same,MIC90,[23],0.03 µg/mL
same,Activity,Streptococcus agalactiae [24],100%
same,Activity,Streptococcus agalactiae [25],0%
same,Activity,Streptococcus [26],100%
same,MIC90,Streptococcus [27],0.06 µg/mL
same,Activity,Streptococcus [28],100%
same,Activity,[29],0%
same,Activity,Streptococcus [30],0%
same,Activity,Streptococcus pneumoniae [31],100%
same,Activity,[32],0%
same,MIC90,[33],0.06 µg/mL
same,Activity,Streptococcus pyogenes [34],100%
same,Activity,Streptococcus pneumoniae [35],64%
same,MIC90,Streptococcus agalactiae [36],0.06 µg/mL
same,Activity,[37],100%
same,Activity,[38],100%
same,Activity,[39],100%
same,Activity,[40],0%
same,MIC90,Streptococcus [41],0.06 µg/mL
same,Activity,[42],0%
same,Activity,[43],100%
same,Activity,Streptococcus pyogenes [44],0%
same,Activity,Streptococcus pyogenes [45],0%
same,Activity,[46],0%
same,Activity,[47],100%
same,Activity,Streptococcus pyogenes [48],100%
same,Activity,Streptococcus agalactiae [49],0%
same,MIC90,[50],0.06 µg/mL
same,MIC90,Streptococcus [51],0.03 µg/mL
same,MIC90,[52],0.06 µg/mL
same,MIC90,Streptococcus pyogenes [53],≤ 0.03 µg/mL
